Data as given in patent US9321718B2 (CHROMA THERAPEUTICS LTD., priority 2010, dated 2016).
Like-named read-outs stand apart in the source and are kept apart here.

Experiments:
U937 (hCE-1 +ve) cells = test: Proliferation assay, U937 cells; format: cell-based, human; conditions: Homo sapiens, U-937; U937, 72 hours, WST-1; read-out: Proliferation assay: Inhibition of U937 (hCE-1 +ve) cell proliferation IC50
Experimental: (§1) Cells are seeded in 96 well tissue culture plates (1 well=30 mm^2) at an appropriate density (2000 cells per well for U937 cells, 2250 cells per well for HUT-78 and MINO cells) in 50 μl of culture medium (see below for details). 24 Hours later 50 μl of the compound prepared in the same medium is added as 3 fold dilutions to give final concentrations in the range 5-10,000 nM (n=6 for each concentration). The plates are then incubated at 37° C., 5% CO2 for 72 hours. Cell proliferation is assessed using WST-1 (a metabolic indicator dye, Roche Cat no. 11644807001) according to the manufacturer's instructions. The results are calculated as a percentage of vehicle response and plotted as a dose-response curve. IC50 values represent the concentration of compound that inhibits the vehicle response by 50%.
(§2) Culture medium for U937 and RUT-78 cells is RPMI1640 (Sigma R0883) with 10% heat inactivated fetal calf serum (Hyclone SH30071, Perbio), plus 2 mM glutamine (Sigma G7513) and 50 U/ml penicillin and streptomycin sulphate (Sigma P0781). MINO cell culture medium is as for U937 and HUT-78 but supplemented with sodium pyruvate (Sigma S8636) to a final concentration of 1 mM.

[1] = target: T1, human recombinant his-tagged HSP90α (Homo sapiens, UniProt P07900); test: HSP90 enzyme assay (HTRF, competition with biotinylated Geldanamycin); format: binding
T1 construct: purchased Prospec Technogene #HSP90
Summary of the method: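 HTRF competition: compounds (5000 to 0.3 nM, 0.5% DMSO) displace 40 nM biotinylated geldanamycin from 40 nM his-tagged HSP90α. Binding was read via Eu-cryptate anti-his/streptavidin-XL FRET after 20 h at room temperature in Hepes pH 7.3 buffer. IC50 was fitted against controls.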

[2] = test system: TNFα release from LPS stimulated THP-1 (hCE-1 +ve) cells; test: LPS-stimulation of THP-1 cells (TNF-α release); format: cell-based, human
Summary of the method: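 THP-1 cells at 4×10^4 per well were pre-incubated for 16 h, then exposed to inhibitor for 2 h before stimulation with 1 μg/ml LPS for 6 h at 37 °C. TNF-α in cell-free supernatants was measured by sandwich ELISA.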

Hut78 (hCE-1 -ve) cells = test: Proliferation assay, Hut78 cells; format: cell-based, human
Experimental: as §1, §2

[3] = test system: TNF-α levels in LPS-stimulated human whole blood; test: LPS-stimulation of human whole blood (TNF-α levels); format: cell-based; conditions: IC50 range, TNF-α after LPS 100 ng/ml, 6 hours
Experimental: Whole blood is taken by venous puncture using heparinised vacutainers (Becton Dickinson) and diluted in an equal volume of RPMI1640 tissue culture media (Sigma). 100 μl is then plated in V-bottomed 96 well tissue culture treated plates. 2 Hours after the addition of the inhibitor in 100 μl of RPMI1640 media, the blood is stimulated with LPS (E. Coli strain 005:B5, Sigma) at a final concentration of 100 ng/ml and incubated at 37° C. in 5% CO2 for 6 hours. TNF-α levels are measured from cell-free supernatants by sandwich ELISA (R&D Systems #QTA00B).

[4] = IC50 range, read-out: Enzyme Assay
[5] = Homo sapiens, THP-1, IC50 range, TNF-α after LPS 1 μg/ml, 6 hours, read-out: THP-1 Assay
[6] = IC50 range, TNF-α after LPS 1 μg/ml, 6 hours, read-out: THP-1 Assay

## CC1CCN(C(=O)c2cc(C(C)C)c(O)cc2O)CC1 [CHR-7310, reference compound]
U937 (hCE-1 +ve) cells
  IC50: 200 nM
[1]; compound as drawn (ester for the ester compound), read-out: Enzyme assay: Inhibition of Hsp90 (IC50 nM)
  IC50: 8 nM
[2]; Homo sapiens, THP-1, read-out: THP-1 assay: Inhibition of TNFα release from LPS stimulated THP-1 (hCE-1 +ve) cells (IC50 nM)
  IC50: 476 nM
Hut78 (hCE-1 -ve) cells; Homo sapiens, Hut78, 72 hours, WST-1, read-out: Proliferation assay: Inhibition of Hut78 (hCE-1 -ve) cell proliferation IC50
  IC50: 145 nM
Hut78 (hCE-1 -ve) cells; Hut78 IC50 / U937 IC50
  Ratio of IC50's of Hut78 to U937 cells: ~1

## CC(C)c1cc(C(=O)N2Cc3ccc(CN[C@@H](C)C(=O)OC4CCCC4)cc3C2)c(O)cc1O [Example 59, cyclopentyl N-[(2-{[2,4-dihydroxy-5-(propan-2-yl)phenyl]carbonyl}-2,3-dihydro-1H-isoindol-5-yl)methyl]-L-alaninate]
[1]; [4]
  IC50: < 100 nM
[2]; [5]
  IC50: < 100 nM
[3]; Homo sapiens
  IC50: 100 to 1000 nM

## CC(C)c1cc(C(=O)N2Cc3ccc(CNC4(C(=O)OC5CCCC5)CCCC4)cc3C2)c(O)cc1O [Example 60, cyclopentyl 1-{[(2-{[2,4-dihydroxy-5-(propan-2-yl)phenyl]carbonyl}-2,3-dihydro-1H-isoindol-5-yl)methyl]amino}cyclopentanecarboxylate]
[1]; [4]
  IC50: < 100 nM
[2]; [5]
  IC50: < 100 nM
[3]; Homo sapiens
  IC50: 100 to 1000 nM

## CC(C)C[C@H](NCCc1ccc2c(c1)CN(C(=O)c1cc(C(C)C)c(O)cc1O)C2)C(=O)OC1CCCC1 [Example 61, cyclopentyl N-[2-(2-{[2,4-dihydroxy-5-(propan-2-yl)phenyl]carbonyl}-2,3-dihydro-1H-isoindol-5-yl)ethyl]-L-leucinate]
[1]; [4]
  IC50: < 100 nM
[2]; [5]
  IC50: 100 to 1000 nM
[3]; Homo sapiens
  IC50: 100 to 1000 nM

## CC(C)C[C@H](NCCc1ccc2c(c1)CN(C(=O)c1cc(C(C)C)c(O)cc1O)C2)C(=O)OC(C)(C)C [Example 62, tert-butyl N-[2-(2-{[2,4-dihydroxy-5-(propan-2-yl)phenyl]carbonyl}-2,3-dihydro-1H-isoindol-5-yl)ethyl]-L-leucinate]
[1]; [4]
  IC50: < 100 nM
[2]; [5]
  IC50: 100 to 1000 nM
[3]; Homo sapiens
  IC50: > 1000 nM

## CC(C)c1cc(C(=O)N2Cc3ccc(CCNC4(C(=O)OC5CCCC5)CCCC4)cc3C2)c(O)cc1O [Example 63, cyclopentyl 1-{[2-(2-{[2,4-dihydroxy-5-(propan-2-yl)phenyl]carbonyl}-2,3-dihydro-1H-isoindol-5-yl)ethyl]amino}cyclopentanecarboxylate]
[1]; [4]
  IC50: < 100 nM
[2]; [5]
  IC50: 100 to 1000 nM
[3]; Homo sapiens
  IC50: 100 to 1000 nM

## CC(C)C[C@H](NCCCc1ccc2c(c1)CN(C(=O)c1cc(C(C)C)c(O)cc1O)C2)C(=O)OC1CCCC1 [Example 64, cyclopentyl N-[3-(2-{[2,4-dihydroxy-5-(propan-2-yl)phenyl]carbonyl}-2,3-dihydro-1H-isoindol-5-yl)propyl]-L-leucinate]
[1]; [4]
  IC50: < 100 nM
[2]; [5]
  IC50: < 100 nM
[3]; Homo sapiens
  IC50: 100 to 1000 nM

## CC(C)c1cc(C(=O)N2Cc3ccc(CCCNC4(C(=O)OC5CCCC5)CCCC4)cc3C2)c(O)cc1O [Example 65, cyclopentyl 1-{[3-(2-{[2,4-dihydroxy-5-(propan-2-yl)phenyl]carbonyl}-2,3-dihydro-1H-isoindol-5-yl)propyl]amino}cyclopentanecarboxylate]
[1]; [4]
  IC50: < 100 nM
[2]; [5]
  IC50: 100 to 1000 nM
[3]; Homo sapiens
  IC50: 100 to 1000 nM

## CC(C)C[C@H](NCc1cccc(CN(C)C(=O)c2cc(C(C)C)c(O)cc2O)c1)C(=O)OC1CCCC1 [Example 66, cyclopentyl N-(3-{[{[2,4-dihydroxy-5-(propan-2-yl)phenyl]carbonyl}(methyl)amino]methyl}benzyl)-L-leucinate]
[1]; [4]
  IC50: < 100 nM
[2]; [5]
  IC50: 100 to 1000 nM
[3]; Homo sapiens
  IC50: > 1000 nM

## CC(C)c1cc(C(=O)N(C)Cc2cccc(CNC(C)(C)C(=O)OC3CCCC3)c2)c(O)cc1O [Example 67, cyclopentyl N-(3-{[{[2,4-dihydroxy-5-(propan-2-yl)phenyl]carbonyl}(methyl)amino]methyl}benzyl)-2-methylalaninate]
[1]; [4]
  IC50: < 100 nM
[2]; [5]
  IC50: 100 to 1000 nM
[3]; Homo sapiens
  IC50: 100 to 1000 nM

## CC(C)c1cc(C(=O)N(C)Cc2cccc(CNC3(C(=O)OC4CCCC4)CCCC3)c2)c(O)cc1O [Example 68, cyclopentyl 1-[(3-{[{[2,4-dihydroxy-5-(propan-2-yl)phenyl]carbonyl}(methyl)amino]methyl}benzyl)amino]cyclopentanecarboxylate]
[1]; [4]
  IC50: < 100 nM
[2]; [5]
  IC50: 100 to 1000 nM
[3]; Homo sapiens
  IC50: > 1000 nM

## CC(C)c1cc(C(=O)N(C)Cc2cccc(CN[C@H](C(=O)OC3CCCC3)c3ccccc3)c2)c(O)cc1O [Example 69, cyclopentyl (2S)-[(3-{[{[2,4-dihydroxy-5-(propan-2-yl)phenyl]carbonyl}(methyl)amino]methyl}benzyl)amino](phenyl)ethanoate]
[1]; [4]
  IC50: 100 to 1000 nM
[2]; [5]
  IC50: > 1000 nM
[3]; Homo sapiens
  IC50: > 1000 nM

## CC(C)C[C@H](NCc1ccc(CN(C)C(=O)c2cc(C(C)C)c(O)cc2O)cc1)C(=O)OC1CCCC1 [Example 70, cyclopentyl N-(4-{[{[2,4-dihydroxy-5-(propan-2-yl)phenyl]carbonyl}(methyl)amino]methyl}benzyl)-L-leucinate]
[1]; [4]
  IC50: < 100 nM
[2]; [5]
  IC50: 100 to 1000 nM
[3]; Homo sapiens
  IC50: 100 to 1000 nM

## CC(C)c1cc(C(=O)N(C)Cc2ccc(CN[C@H](C(=O)OC3CCCC3)c3ccccc3)cc2)c(O)cc1O [Example 71, cyclopentyl (2S)-[(4-{[{[2,4-dihydroxy-5-(propan-2-yl)phenyl]carbonyl}(methyl)amino]methyl}benzyl)amino](phenyl)ethanoate]
[1]; [4]
  IC50: 100 to 1000 nM
[2]; [5]
  IC50: 100 to 1000 nM
[3]; Homo sapiens
  IC50: 100 to 1000 nM

## CC(C)c1cc(C(=O)N(C)Cc2ccc(CNC(C)(C)C(=O)OC3CCCC3)cc2)c(O)cc1O [Example 72, cyclopentyl N-(4-{[{[2,4-dihydroxy-5-(propan-2-yl)phenyl]carbonyl}(methyl)amino]methyl}benzyl)-2-methylalaninate]
[1]; [4]
  IC50: < 100 nM
[2]; [5]
  IC50: 100 to 1000 nM
[3]; Homo sapiens
  IC50: 100 to 1000 nM

## CC(C)c1cc(C(=O)N(C)Cc2ccc(CCNC(C)(C)C(=O)OC3CCCC3)cc2)c(O)cc1O [Example 73, cyclopentyl N-[2-(4-{[{[2,4-dihydroxy-5-(propan-2-yl)phenyl]carbonyl}(methyl)amino]methyl}phenyl)ethyl]-2-methylalaninate]
[1]; [4]
  IC50: < 100 nM
[2]; [5]
  IC50: 100 to 1000 nM
[3]; Homo sapiens
  IC50: 100 to 1000 nM

## CC(C)C[C@H](NC[C@H]1CCCN1C(=O)c1cc(C(C)C)c(O)cc1O)C(=O)OC1CCCC1 [Example 74, cyclopentyl N-{[(2R)-1-{[2,4-dihydroxy-5-(propan-2-yl)phenyl]carbonyl}pyrrolidin-2-yl]methyl}-L-leucinate]
[1]; [4]
  IC50: 100 to 1000 nM
[2]; [5]
  IC50: > 1000 nM
[3]; Homo sapiens
  IC50: > 1000 nM

## CC(C)C[C@H](NC[C@@H]1CCCN1C(=O)c1cc(C(C)C)c(O)cc1O)C(=O)OC1CCCC1 [Example 75, cyclopentyl N-{[(2S)-1-{[2,4-dihydroxy-5-(propan-2-yl)phenyl]carbonyl}pyrrolidin-2-yl]methyl}-L-leucinate]
[1]; [4]
  IC50: > 1000 nM
[2]; [5]
  IC50: > 1000 nM
[3]; Homo sapiens
  IC50: > 1000 nM

## CC(C)C[C@@H](NC1CCN(C(=O)c2cc(C(C)C)c(O)cc2O)C1)C(=O)OC1CCCC1 (stereo partly drawn) [Example 76, cyclopentyl N-(1-{[2,4-dihydroxy-5-(propan-2-yl)phenyl]carbonyl}pyrrolidin-3-yl)-D-leucinate]
[1]; [4]
  IC50: < 100 nM
[2]; [5]
  IC50: > 1000 nM
[3]; Homo sapiens
  IC50: > 1000 nM

## cyclopentyl N-(1-{[2,4-dihydroxy-5-(propan-2-yl)phenyl]carbonyl}piperidin-4-yl)-L-valinate [Example 3]
[1]; [4]
  IC50: < 100 nM
[2]; [6]
  IC50: > 1000 nM
[3]
  IC50: > 1000 nM

## cyclopentyl N-[(1-{[2,4-dihydroxy-5-(propan-2-yl)phenyl]carbonyl}piperidin-4-yl)methyl]-L-serinate [Example 33]
[1]; [4]
  IC50: < 100 nM
[2]; [6]
  IC50: 100 to 1000 nM
[3]
  IC50: 100 to 1000 nM
